Source: the supplement of paper PMC10307832

Experiments:
Experiment in all cases: relative viability (nuclei count vs DMSO), 5 days (fraction); higher = more cells survive
Irinotecan + Dasatinib = compound: CCc1c2c(nc3ccc(OC(=O)N4CCC(N5CCCCC5)CC4)cc13)-c1cc3c(c(=O)n1C2)COC(=O)[C@]3(O)CC [Irinotecan] + Cc1nc(Nc2ncc(C(=O)Nc3c(C)cccc3Cl)s2)cc(N2CCN(CCO)CC2)n1 [Dasatinib] (partner 0.075 µM)
Outline: (§1)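 Each reported value is a median over duplicate plates. It expresses relative viability: treated-well nuclei count divided by vehicle-well nuclei count. Lung cancer cell lines in 1536-well plates were dosed by pin tool a day after seeding, alone with one drug or with a fixed anchor-drug dose plus five library-drug doses (not always all listed) in √10 steps, and nuclei were counted after 5 days.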

MK-8033 + Bortezomib = compound: Cn1cc(-c2cnc3ccc4ccc(CS(=O)(=O)NCc5ccccn5)cc4c(=O)c3c2)cn1 [MK-8033] + CC(C)C[C@H](NC(=O)[C@H](Cc1ccccc1)NC(=O)c1cnccn1)B(O)O [Bortezomib] (partner 0.002 µM)
Outline: as §1

RU-SKI 43 + Phenformin = compound: CC[C@@H](C)CNCC(=O)N1CCC2=C([C@@H]1COC3=CC=CC(=C3)C)C=CS2 [RU-SKI 43] + N=C(N)NC(=N)NCCc1ccccc1 [Phenformin] (partner 250 µM)
Outline: as §1

RU-SKI 43 + Crizotinib = compound: CC[C@@H](C)CNCC(=O)N1CCC2=C([C@@H]1COC3=CC=CC(=C3)C)C=CS2 [RU-SKI 43] + C[C@@H](Oc1cc(-c2cnn(C3CCNCC3)c2)cnc1N)c1c(Cl)ccc(F)c1Cl [Crizotinib] (partner 1 µM)
Outline: as §1

| Cell Line | relative viability (Irinotecan + Dasatinib; first compound 0.6325 µM) | relative viability (Irinotecan + Dasatinib; first compound 2 µM) | relative viability (Irinotecan + Dasatinib; first compound 6.325 µM) | relative viability (Irinotecan + Dasatinib; first compound 20 µM) | relative viability (MK-8033 + Bortezomib; first compound 0.02 µM) | relative viability (MK-8033 + Bortezomib; first compound 0.06325 µM) | relative viability (MK-8033 + Bortezomib; first compound 0.2 µM) | relative viability (MK-8033 + Bortezomib; first compound 0.6325 µM) | relative viability (MK-8033 + Bortezomib; first compound 2 µM) | relative viability (RU-SKI 43 + Phenformin; first compound 0.1 µM) | relative viability (RU-SKI 43 + Phenformin; first compound 0.3162 µM) | relative viability (RU-SKI 43 + Phenformin; first compound 1 µM) | relative viability (RU-SKI 43 + Phenformin; first compound 3.162 µM) | relative viability (RU-SKI 43 + Phenformin; first compound 10 µM) | relative viability (RU-SKI 43 + Crizotinib; first compound 0.1 µM) | relative viability (RU-SKI 43 + Crizotinib; first compound 0.3162 µM) | relative viability (RU-SKI 43 + Crizotinib; first compound 1 µM) | relative viability (RU-SKI 43 + Crizotinib; first compound 3.162 µM) | relative viability (RU-SKI 43 + Crizotinib; first compound 10 µM) |
| --- | --- | --- | --- | --- | --- | --- | --- | --- | --- | --- | --- | --- | --- | --- | --- | --- | --- | --- | --- |
| COR-L23 | 0.271 | 0.272 | 0.239 | 0.0978 | 0.966 | 0.797 | 0.868 | 0.971 | 1.02 | 0.426 | 0.544 | 0.46 | 0.553 | 0.421 | 0.752 | 0.598 | 0.736 | 0.667 | 0.492 |
| COR-L 105 | 0.376 | 0.42 | 0.333 | 0.182 | 0.852 | 0.735 | 0.79 | 0.945 | 0.93 | 0.486 | 0.519 | 0.555 | 0.439 | 0.515 | 0.682 | 0.697 | 0.858 | 0.712 | 0.438 |
| ChaGo-K-1 | 0.351 | 0.474 | 0.236 | 0.178 | 1.37 | 0.756 | 0.98 | 1.02 | 0.926 | 0.474 | 0.491 | 0.548 | 0.479 | 0.488 | 1.15 | 1.27 | 1.26 | 1.17 | 0.951 |
| EKVX |  | 0.457 | 0.387 | 0.3 | 1 | 0.995 | 0.968 | 0.712 | 1.03 | 0.221 | 0.197 | 0.261 | 0.235 | 0.193 | 0.902 | 1.01 | 0.926 | 0.987 | 0.713 |
| EMC-BAC-2 | 0.292 | 0.324 | 0.215 | 0.304 | 1 | 0.947 | 0.979 | 1.06 | 1.06 | 0.535 | 0.429 | 0.551 | 0.482 | 0.507 | 0.789 | 0.793 | 0.811 | 0.828 | 0.751 |
| EPLC-272H | 0.146 | 0.296 | 0.15 | 0.265 | 0.932 |  | 0.826 | 1.09 | 0.91 | 0.294 | 0.242 | 0.323 | 0.213 | 0.266 | 0.981 | 0.964 | 1.01 |  | 0.812 |
| H3255 | 0.443 | 0.292 | 0.358 | 0.387 | 0.846 | 0.585 | 0.822 | 0.825 | 0.705 | 0.395 | 0.348 | 0.26 | 0.316 | 0.322 | 0.858 | 0.885 | 0.976 | 0.791 | 0.874 |
| HARA | 0.109 | 0.188 | 0.114 | 0.121 | 1.07 | 1.1 | 1.13 | 1.17 | 1.07 | 0.531 | 0.471 | 0.491 | 0.457 | 0.408 | 1.16 | 0.971 | 1.08 | 1.18 | 0.975 |
| HCC-15 |  | 0.523 | 0.196 | 0.123 | 1.04 | 1.01 | 0.99 | 1.05 | 0.952 | 0.49 | 0.53 | 0.55 | 0.511 | 0.521 | 0.806 | 1.01 | 0.962 | 0.873 | 0.807 |
| HCC-78 | 0.394 | 0.384 | 0.214 | 0.24 | 0.446 | 0.38 | 0.47 | 0.478 | 0.557 | 0.735 | 0.735 | 0.933 | 0.739 | 0.692 | 0.334 | 0.305 | 0.35 | 0.353 | 0.302 |
| HCC-366 | 0.362 | 0.429 | 0.0758 | 0.0603 | 1.07 | 1 | 0.96 | 1.18 | 1.05 | 0.616 | 0.676 | 0.652 | 0.582 | 0.453 | 0.454 | 0.392 | 0.548 | 0.486 | 0.27 |
| HCC-827 | 0.459 | 0.219 | 0.247 | 0.227 | 1.06 | 1.01 | 1.05 | 1.08 | 1.04 | 0.421 | 0.422 | 0.372 | 0.46 | 0.359 | 0.956 | 1.01 | 0.987 | 0.916 | 0.602 |
| HOP-62 | 0.549 | 0.589 | 0.276 | 0.201 | 0.932 | 0.85 | 0.333 | 0.555 | 0.897 | 0.688 | 0.547 | 0.779 | 0.789 | 0.714 | 0.7 | 1.01 | 1.09 | 0.829 | 0.977 |
| LC-2-ad | 0.286 | 0.437 | 0.184 | 0.204 | 1.12 | 0.996 | 0.885 | 0.996 | 0.933 | 0.578 | 0.628 | 0.637 | 0.527 | 0.558 | 0.443 | 0.392 | 0.535 |  | 0.43 |
| LCLC-97TM1 | 0.711 | 0.589 | 0.121 | 0.132 | 1.14 | 0.616 | 0.597 | 0.654 | 0.499 | 0.463 | 0.471 | 0.422 | 0.43 | 0.384 | 0.424 |  | 0.331 | 0.267 | 0.287 |
| LCLC-103H | 0.413 | 0.439 | 0.324 | 0.275 | 1.04 | 0.986 | 1.18 | 1.02 | 1.12 | 0.318 | 0.388 | 0.435 | 0.346 | 0.343 | 1.08 | 1.12 | 1.08 | 1.09 | 0.926 |
